# Assay results taken from ChEMBL document CHEMBL1132609, “Discovery of a novel class of selective non-peptide antagonists for the human neurokinin-3 receptor. 2. Identification of (S)-N-(1-phenylpropyl)-3-hydroxy-2-phenylquinoline-4-carboxamide (SB 223412)” (J Med Chem, 1999).
# Tests used:
# Neuromedin-K receptor = biological target: T1, Neuromedin-K receptor (Homo sapiens, UniProt P29371); assay: Binding affinity towards cloned human Tachykinin receptor 3 (hNK-3) expressed in CHO cells using [125I][MePhe7]-NKB; assay type: cell-based
# T1 sequence (P29371 whole entry): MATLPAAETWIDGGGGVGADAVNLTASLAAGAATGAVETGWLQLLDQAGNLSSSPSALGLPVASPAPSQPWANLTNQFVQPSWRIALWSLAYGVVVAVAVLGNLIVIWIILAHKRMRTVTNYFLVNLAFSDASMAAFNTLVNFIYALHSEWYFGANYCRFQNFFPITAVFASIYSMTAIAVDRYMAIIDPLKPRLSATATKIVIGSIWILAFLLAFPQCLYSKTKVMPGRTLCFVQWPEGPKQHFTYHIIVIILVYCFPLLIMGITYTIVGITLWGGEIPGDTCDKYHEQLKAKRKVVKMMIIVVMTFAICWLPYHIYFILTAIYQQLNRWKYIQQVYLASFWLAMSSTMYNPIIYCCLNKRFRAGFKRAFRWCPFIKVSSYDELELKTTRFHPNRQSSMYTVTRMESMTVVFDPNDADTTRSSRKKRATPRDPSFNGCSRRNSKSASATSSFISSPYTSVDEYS
# Substance-P receptor = Substance-P receptor (Homo sapiens, UniProt P25103); assay: Binding affinity towards cloned human Tachykinin receptor 1 (hNK-1) expressed in CHO cells using [3H]substance P
# Substance-K receptor = biological target: T2, Substance-K receptor (Homo sapiens, UniProt P21452); assay: Binding affinity towards cloned human Tachykinin receptor 2 (hNK-2) expressed in CHO cells using [125I]NKA
# T2 sequence (P21452 whole entry): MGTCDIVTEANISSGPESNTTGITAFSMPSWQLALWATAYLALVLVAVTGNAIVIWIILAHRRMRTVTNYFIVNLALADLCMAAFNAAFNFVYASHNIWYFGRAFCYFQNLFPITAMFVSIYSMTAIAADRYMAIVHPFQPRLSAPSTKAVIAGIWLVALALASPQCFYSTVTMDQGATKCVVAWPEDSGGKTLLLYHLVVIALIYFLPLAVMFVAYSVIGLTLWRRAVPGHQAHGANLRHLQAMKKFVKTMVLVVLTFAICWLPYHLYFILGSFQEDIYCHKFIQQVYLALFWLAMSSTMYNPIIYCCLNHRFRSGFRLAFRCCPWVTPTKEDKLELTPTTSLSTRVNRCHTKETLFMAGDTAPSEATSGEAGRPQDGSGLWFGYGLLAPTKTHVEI
# [1] = biological target: Neuromedin-K receptor (Oryctolagus cuniculus); assay: In vitro functional activity as antagonism of senktide-induced contractions in RISM (Rabbit Isolated Iris Sphincter Muscle) containing NK-3 receptor
# Substance-P receptor, sequence (P25103 whole entry): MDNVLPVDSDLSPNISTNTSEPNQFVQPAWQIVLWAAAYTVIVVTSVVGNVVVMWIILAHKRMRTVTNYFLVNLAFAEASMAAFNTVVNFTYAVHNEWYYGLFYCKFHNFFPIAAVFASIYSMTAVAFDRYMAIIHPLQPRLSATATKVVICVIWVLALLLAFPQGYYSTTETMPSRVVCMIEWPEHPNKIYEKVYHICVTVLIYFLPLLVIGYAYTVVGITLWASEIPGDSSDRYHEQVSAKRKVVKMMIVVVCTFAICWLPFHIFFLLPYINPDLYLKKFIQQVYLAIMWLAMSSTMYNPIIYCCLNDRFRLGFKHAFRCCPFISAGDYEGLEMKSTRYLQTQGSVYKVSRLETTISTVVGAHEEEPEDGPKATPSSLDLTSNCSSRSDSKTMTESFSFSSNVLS
SMILES,Ki (Neuromedin-K receptor) [nM],further results
CNC(=O)C(NC(=O)c1cc(-c2ccccc2)nc2ccccc12)c1ccccc1 (stereo not drawn),426,
CCCCCCCC(NC(=O)c1cc(-c2ccccc2)nc2ccccc12)c1ccccc1 (stereo not drawn),4870,
NC[C@@H](NC(=O)c1cc(-c2ccccc2)nc2ccccc12)c1ccccc1,1140,
O=C(NC1(c2ccccc2)CCCC1)c1cc(-c2ccccc2)nc2ccccc12,129,
CN(C)C[C@@H](NC(=O)c1cc(-c2ccccc2)nc2ccccc12)c1ccccc1,1070,
CCCCC(NC(=O)c1cc(-c2ccccc2)nc2ccccc12)c1ccccc1 (stereo not drawn),146,
CN(C)C(=O)C(NC(=O)c1cc(-c2ccccc2)nc2ccccc12)c1ccccc1 (stereo not drawn),488,
CC(NC(=O)c1cc(-c2ccccc2)nc2ccccc12)c1ccccc1 (stereo not drawn),264,
CC[C@@H](NC(=O)c1cc(-c2ccccc2)nc2ccccc12)c1ccccc1,,Ki (Substance-P receptor): > 100 µM; Ki (Substance-K receptor): 237 nM
O=C(NC(CCO)c1ccccc1)c1cc(-c2ccccc2)nc2ccccc12 (stereo not drawn),382,
"CCC(NC(=O)c1c(OC)c(-c2ccccc2)nc2ccccc12)c1ccccc1 (single isomer, unassigned) [listing 1 of 2 here]",,Kb [1]: 1.8 nM
CC[C@@H](NC(=O)c1c(C)c(-c2ccccc2)nc2ccccc12)c1ccccc1,,Ki (Substance-P receptor): > 100 µM; Ki (Substance-K receptor): 277 nM
CC[C@@H](NC(=O)c1c(OCC(=O)O)c(-c2ccccc2)nc2ccccc12)c1ccccc1,,Ki (Substance-P receptor): > 100 µM; Ki (Substance-K receptor): 214 nM
NC(=O)C(NC(=O)c1cc(-c2ccccc2)nc2ccccc12)c1ccccc1 (stereo not drawn),983,
COC(=O)CC(NC(=O)c1cc(-c2ccccc2)nc2ccccc12)c1ccccc1 (stereo not drawn),973,
CC[C@@H](NC(=O)c1c(N)c(-c2ccccc2)nc2ccccc12)c1ccccc1,,Ki (Substance-P receptor): > 100 µM; Ki (Substance-K receptor): 111 nM
O=C(NC(CO)c1ccccc1)c1cc(-c2ccccc2)nc2ccccc12 (stereo not drawn),207,
COCC(NC(=O)c1cc(-c2ccccc2)nc2ccccc12)c1ccccc1 (stereo not drawn),314,
O=C(NC(Cc1ccccc1)c1ccccc1)c1cc(-c2ccccc2)nc2ccccc12 (stereo not drawn),3510,
CC(C)(NC(=O)c1cc(-c2ccccc2)nc2ccccc12)c1ccccc1,295,
CC(C)C(NC(=O)c1cc(-c2ccccc2)nc2ccccc12)c1ccccc1 (stereo not drawn),74.3,
O=C(NC(c1ccccc1)c1ccccc1)c1cc(-c2ccccc2)nc2ccccc12,134,
O=C(NC(c1ccccc1)C(F)(F)F)c1cc(-c2ccccc2)nc2ccccc12 (stereo not drawn),454,
CCc1c(-c2ccccc2)nc2ccccc2c1C(=O)N[C@H](CC)c1ccccc1,,Ki (Substance-P receptor): > 100 µM; Ki (Substance-K receptor): 316 nM
O=C(N[C@H](C(=O)O)c1ccccc1)c1cc(-c2ccccc2)nc2ccccc12,1650,

# The remaining compounds from weak to strong by Ki (Neuromedin-K receptor), led by results:
Ki (Neuromedin-K receptor) [nM],SMILES,further results
55.4,CCCCCCc1c(-c2ccccc2)nc2ccccc2c1C(=O)NC(CC)c1ccccc1 (stereo not drawn),
47.2,CCCC(NC(=O)c1cc(-c2ccccc2)nc2ccccc12)c1ccccc1 (stereo not drawn),
45.3,CCC(NC(=O)c1c(-c2ccccc2)c(-c2ccccc2)nc2ccccc12)c1ccccc1 (stereo not drawn),
37.2,"CCC(NC(=O)c1c(Br)c(-c2ccccc2)nc2ccccc12)c1ccccc1 (single isomer, unassigned)",
30.3,CC[C@@H](NC(=O)c1c(F)c(-c2ccccc2)nc2ccccc12)c1ccccc1,
29.9,CC[C@@H](NC(=O)c1c(Cl)c(-c2ccccc2)nc2ccccc12)c1ccccc1,
27.4,CC(=O)C(NC(=O)c1cc(-c2ccccc2)nc2ccccc12)c1ccccc1 (stereo not drawn),
15.9,"CCC(NC(=O)c1c(NC(C)=O)c(-c2ccccc2)nc2ccccc12)c1ccccc1 (single isomer, unassigned)",
15.2,CCCCc1c(-c2ccccc2)nc2ccccc2c1C(=O)NC(CC)c1ccccc1 (stereo not drawn),
13.7,CCCc1c(-c2ccccc2)nc2ccccc2c1C(=O)NC(CC)c1ccccc1 (stereo not drawn),
10.7,"CCC(NC(=O)c1c(NC(=O)CN(C)C)c(-c2ccccc2)nc2ccccc12)c1ccccc1 (single isomer, unassigned)",
8.6,"CCC(NC(=O)c1c(OCCCN(C)C)c(-c2ccccc2)nc2ccccc12)c1ccccc1 (single isomer, unassigned)",
6.8,"CCC(NC(=O)c1c(OCCN2CCCC2)c(-c2ccccc2)nc2ccccc12)c1ccccc1 (single isomer, unassigned)",
6.3,"CCC(NC(=O)c1c(OCC(N)=O)c(-c2ccccc2)nc2ccccc12)c1ccccc1 (single isomer, unassigned)",
5.8,CCC(NC(=O)c1c(OC)c(-c2ccccc2)nc2ccccc12)c1ccccc1 (stereo not drawn),
5.7,"CCC(NC(=O)c1c(OCCN(C)C)c(-c2ccccc2)nc2ccccc12)c1ccccc1 (single isomer, unassigned)",
4.7,"CCC(NC(=O)c1c(OCCN)c(-c2ccccc2)nc2ccccc12)c1ccccc1 (single isomer, unassigned)",
2.4,CC[C@@H](NC(=O)c1c(OCC(=O)N(C)C)c(-c2ccccc2)nc2ccccc12)c1ccccc1,
2.2,CC[C@@H](NC(=O)c1c(CN(C)C)c(-c2ccccc2)nc2ccccc12)c1ccccc1,Ki (Substance-P receptor): > 100 µM; Ki (Substance-K receptor): 172 nM
2,"CCOC(=O)COc1c(-c2ccccc2)nc2ccccc2c1C(=O)NC(CC)c1ccccc1 (single isomer, unassigned)",
1.8,"CCC(NC(=O)c1c(OC)c(-c2ccccc2)nc2ccccc12)c1ccccc1 (single isomer, unassigned) [listing 2 of 2 here]",Ki (Substance-P receptor): > 100 µM; Ki (Substance-K receptor): 329 nM
1.5,CC[C@@H](NC(=O)c1c(OCCO)c(-c2ccccc2)nc2ccccc12)c1ccccc1,Ki (Substance-P receptor): > 100 µM; Ki (Substance-K receptor): 82 nM
